# Reference: patent publication US10336732B2, “1-heterocyclyl isochromanyl compounds and analogs for treating CNS disorders” (Sunovion Pharmaceuticals Inc., priority 2015, dated 2019)
# Target: T1, M4 (Homo sapiens, UniProt P08173)
# T1 construct: expressed in transfected cells; host or cells: CHO cells
# T1 sequence (P08173 1-479): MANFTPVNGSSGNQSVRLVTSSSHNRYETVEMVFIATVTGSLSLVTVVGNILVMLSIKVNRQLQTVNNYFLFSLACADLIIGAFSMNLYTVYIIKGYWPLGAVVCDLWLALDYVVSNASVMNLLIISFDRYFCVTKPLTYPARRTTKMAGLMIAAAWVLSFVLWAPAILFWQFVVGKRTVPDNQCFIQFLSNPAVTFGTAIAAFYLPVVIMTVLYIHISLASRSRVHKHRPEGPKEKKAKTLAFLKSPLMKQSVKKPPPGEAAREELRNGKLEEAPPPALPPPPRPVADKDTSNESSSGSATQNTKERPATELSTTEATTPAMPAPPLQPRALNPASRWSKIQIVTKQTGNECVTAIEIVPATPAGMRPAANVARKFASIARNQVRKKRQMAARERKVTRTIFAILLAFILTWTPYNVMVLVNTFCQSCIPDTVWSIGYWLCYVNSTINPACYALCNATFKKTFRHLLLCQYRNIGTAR
# Experiment: In vitro radioligand binding assay, M4, [3H]4-DAMP
# Conditions: human recombinant (CHO cells)
# Protocol: Certain compounds were tested by in vitro binding assays using standard procedures. […] These receptors and assays are well known to those skilled in the art, as exemplified by the following: Abramovitz, M. et al. (2000), Biochem. Biophys. Acta., 1483: 285-293 (EP4, IP (PGI2)); Aharony, D. et al. (1993), Mol. Pharmacol., 44: 356-363 (NK2); Ardati, A. et al. (1997), Mol. Pharmacol., 51: 816-824 (NOP (ORL1)); Bignon, E. et al. (1999), J. Pharmacol. Exp. Ther. 289: 742-751 (CCK1 (CCKA)); Bloomquist, B. T. et al. (1998), Biochem. Biophys. Res. Commun., 243: 474-479 (GAL2); Brockhaus, M. et al. (1990), Proc. Natl. Acad. Sci. U.S.A., 87: 3127-3131 (TNF-α); Brown, G. B. (1986), J. Neurosci., 6: 2064-2070 (Na+ channel (site 2)); Buchan, K. W. et al. (1994), Brit. J. Pharmacol., 112: 1251-1257 (ETA); Cesura, A. M. et al. (1990), Mol. Pharmacol., 37: 358-366 (MAO-A); Choi, D. S. et al. (1994), FEBS Lett., 352: 393-399 (5-HT2B); Clark, A. F. et al. (1996), Invest. Ophtalmol. Vis. […]
smiles,measurement,value
"Fc1cccc2c1CCO[C@@H]2[C@H]1CCN1 [Compound I-96, (R)-2-((S)-5-fluoroisochroman-1-yl)azetidine]",M4 percent inhibition of specific binding,M4 (53%)
